Our source for the melting point values is a melting point compilation (Tetko et al.; mined from patent text by program, amines drawn as free bases though some values may be those of a salt).

As usually defined, the melting point is the temperature, or range, at which the solid turns liquid. `COC(=O)CCCCC(=O)Nc1ccc(C(=O)NN=C2C(=O)Nc3ccc(I)cc32)cc1` yielded a melting point of 277 °C.
For `COc1ccc2c(c1)CCN1C(=O)[C@H]3CCCN(S(C)(=O)=O)[C@H]3C[C@@H]21`, the melting point lay in the range of 138 to 140 °C.
As to `CCSC(=O)OCOC(=O)c1ccco1`, the melting point lay in the range of 37.2 to 38.4 °C.
In turn, `Cc1ccc(Cc2cnc(CCCSCc3cc(CN(C)C)ccn3)[nH]c2=O)cn1` displayed a melting point of 110 to 112 °C.
Then `Cc1ccc(S(=O)(=O)NC(Cc2ccccc2)C(=O)Nc2c(C(C)C)cccc2C(C)C)cc1` (centres undefined), with 183 to 184 °C; and `COc1ccccc1CN[C@H]1CCCN(CC(=O)O)[C@H]1c1ccccc1` (relative stereo), with 58 °C.
`NCC1Cc2cc(-c3cccc(F)c3)cc(F)c2O1` (centres undefined): the melting point was > 250 °C.
The figure for `Nc1nc2c(c3[nH]cnc13)CCCC2` is > 300 °C; for `O=C1CCCc2nc3ccccc3c(NCc3cccc(C(F)(F)F)c3)c21` it is 147 to 149 °C.
For the compound `CCCc1ccc2nc(C(F)(F)F)c(S(=O)(=O)N=CN(C)C)n2n1`, the melting point was 219 to 220 °C.
The figure for `COc1cccc(-c2cnc3c(-c4cc(-c5ccccc5)cs4)cnn3c2O)c1` is > 300 °C.
The compound `O=C(C=Cc1ccc(OC(F)(F)F)cc1)C=Cc1ccc(OC(F)(F)F)cc1` had a melting point of 112 to 115 °C.
On to `Oc1cccc(C2CN=C(c3ccccn3)O2)c1` (centres undefined), for which the melting point is 139 to 141 °C.
In turn, `CC(C)(C)OC(=O)N[C@@H](Cc1ccccc1)C(=O)N[C@@H](Cc1ccc(O)c(I)c1)C(=O)OCc1ccccc1` had a melting point of 81.6 to 82.7 °C.
As for `Cc1oc(-c2ccccc2)nc1COc1ccc(CCCC2OC(=O)NC2=O)cc1F` (centres undefined), the melting point is 180 to 181 °C.
`O=Cc1c[nH]c2cccc(OCC3CO3)c12` (centres undefined) came in with a melting point of 108 to 110 °C.
In turn, `CCCNS(=O)(=O)c1cccc(C)c1C#N` returned a melting point of 74 to 77 °C.
As for `CC(C)(O)Cn1c(CON=C2CCCC2)nc2c(N)nc3cccnc3c21`, the melting point fell in the range of 195 to 197 °C.
`N=C(Nc1cccc(NC(=O)CNC(=O)OCc2ccccc2)c1)N1CCCC1` registered a melting point of 81 to 82 °C.
For `COC1CCC2C3CCC4CC(Cl)CCC4(C)C3CCC12C` (centres undefined), the melting point lay within 151 to 154 °C.
`CCc1cc(C(C)O)nn1-c1ccc([N+](=O)[O-])cc1` (centres undefined) showed a melting point of 127 to 128 °C.
Then `COC(=O)[C@@H](NC(=O)OCc1ccccc1)[C@H](O)c1ccccc1`, with 107 to 108 °C.
Then `O=[N+]([O-])c1ccccc1Nc1nc(-c2ccccc2)cs1`, with 114 to 116 °C; and `COc1ccc(Cn2cnc3c(-c4ccco4)nc(C#C[Si](C)(C)C)nc32)cc1`, with 155 to 157 °C.
`Cc1sc(N)c(C(=O)c2ccc(Cl)cc2)c1CN1CCN(c2ccc(F)cc2)CC1` yielded a melting point of 70 to 72 °C.
For the compound `CC[C@H]1[C@H](O)[C@@H](C)C(=O)N1c1ccc(C#N)c(Cl)c1`, the melting point was in the range of 120 to 123 °C.
`O=c1c2cc(F)c(N3CCCC3)nc2n(Cc2ccccc2)c(=O)n1O` gave a melting point of 219 to 220 °C.
The compound `CCn1ncc2c1ncc1c(OCCC(C)C)nc3ncnn3c12` registered a melting point of 140 to 142 °C.
With `CS(=O)(=O)c1ccc(-c2sc(-c3ccncc3)nc2-c2ccc(F)cc2)cc1`, the melting point lay in the range of 171 to 176 °C.
For `CC(C)[C@H](N)C(=O)NC(=O)N(CCCl)N=O`, the melting point is 115 to 117 °C.
In turn, `Cc1c(Br)csc1C(=O)O` returned a melting point of 188 to 189 °C.
The compound `CCCC(=O)N[C@H]1CC[C@H](CCN2CCC(c3cccc4c3CCO4)CC2)CC1` gave a melting point of 196 °C.
Then `O=C1c2ccccc2C(O)N1CCCOc1ccncc1` (centres undefined), with 124 to 125 °C.
`O=C(O)C(=O)c1ccc(OCCCn2c(=O)c3ccccc3c3ccccc32)cc1` yielded a melting point of 202 to 204 °C.
Compound `CC1(Cl)C=CC2=C(c3cccc(CCCC(=O)O)c3)C(CC(=O)Nc3ccc(F)cc3C(F)(F)F)C(=O)OC2=C1` (centres undefined) registered a melting point of 196 °C.
In turn, `CCOCc1nc2c(N)nc3ccccc3c2n1CC(C)(C)O` showed a melting point of 190 to 193 °C.
As to `C#CC[C@H](c1nc2cc(Cl)ccc2c(=O)n1Nc1ccccc1)N(CCCN1C(=O)c2ccccc2C1=O)C(=O)c1cccc(Cl)c1F`, the melting point is 130 to 132 °C.
In the case of `CSC(Cc1ccc2oc(Cc3nc(-c4ccccc4)oc3C)cc2c1)C(=O)O` (centres undefined), the melting point was 178 to 179 °C.
`C=CCN(C)C(=O)Nc1cc(C(C)(C)C)on1` showed a melting point of 90 to 91 °C.
The figure for `C#CCOC(=O)Oc1ccc(S(=O)(=O)c2ccc(OC(=O)OCC#C)cc2)cc1` is 112 to 114 °C; for `CC(C)(C)C(=O)NCCc1ccc(O)c(O)c1` it is 144 to 146 °C.
As to `COc1cc2c(c(Cl)c1Cl)C(=O)C(C)(C1CCCC1)C2` (centres undefined), the melting point lay within 109 to 112 °C.
Turning to `COc1cc(-c2ccsc2)cc2oc(=O)c(C)c(C)c12`, the melting point was 158 to 160 °C.
In turn, `N#CCNC(=O)c1ccc([N+](=O)[O-])cc1` yielded a melting point of 147 to 149 °C.
Compound `CC(C)n1nnnc1-c1ccc(N)c([N+](=O)[O-])c1` showed a melting point of 126 to 128 °C.
Then `N#Cc1cc2c(Cl)ncnc2s1`, with 185 to 190 °C; and `CCOC(=O)c1ccn2nc(-c3ccccc3)cc2n1`, with 180 to 181 °C; and `CC(=O)Nc1ccc(C2=NNC(=O)CC2)cc1[N+](=O)[O-]`, with 223 °C.
For `CC(C)(Oc1ccc(CCC(=O)c2ccc(-c3ccc(C(F)(F)F)cc3)s2)c(Cl)c1Cl)C(=O)O`, the melting point lay within 153 to 154 °C.
Then `CN(C)CCNC(=O)c1c2ccccc2nc2c1[nH]c1ccccc12`, with 175 to 176 °C; and `CCC(=O)Nc1cccc(-c2c(C)c(NC(=O)CC(C)(C)C)c(C)c3c2OCC3c2ccc(C(C)C)cc2)c1` (centres undefined), with 237 to 239 °C.
In turn, `CC1(O)CC(=O)OC(CCc2ccc(Cl)cc2)C1` (centres undefined) showed a melting point of 61 to 64 °C.
As for `CCCc1c(C(=O)C(C)C)c2ccc(NC=O)cc2n1Cc1ccccc1Cl`, the melting point fell in the range of 113 to 115 °C.
In turn, `C/C(=C\C(N)=O)c1ccc2c(c1)C(C)(C)OC(=O)N2` gave a melting point of 198 to 200 °C.
`N#Cc1ccc2ccnc(N)c2c1` came in with a melting point of 183 to 186 °C.
The figure for `CCn1cc(Br)nc(S(=O)(=O)Cc2ccc(Cl)cc2)c1=O` is 145 to 147 °C; for `Cc1ccc([N+](=O)[O-])c2c1CCN2` it is 125 to 127 °C; for `Fc1ccc(C(CCCN2CCC(c3n[nH]c4ccccc34)CC2)c2ccc(F)cc2)cc1` it is 154 to 156 °C.
As for `COc1ccc([N+](=O)[O-])cc1OC(F)F`, the melting point was in the range of 48 to 49 °C.
Take `CC(=NOCCc1ccc(C)cc1)C(=O)O`: the melting point lay within 106 to 108 °C.
Take `COCCOc1cc2ncc(C#N)c(O)c2cc1OCc1ccccc1`: the melting point was > 250 °C.
The compound `Cc1cc(C)nc(NC(=O)NS(=O)(=O)c2ccsc2C(=O)O)n1` showed a melting point of 127 °C.
For the compound `COc1cc(NC(=O)OC(C)(C)C)c(NC(=O)CC(=O)c2cccc(C#N)c2)cc1C#Cc1ccccc1`, the melting point turned out to be 169 °C.
Compound `O=C(Nc1ccc(F)c(C(F)(F)F)c1)Nc1ccc(OCc2ccccc2)cc1O` came in with a melting point of 188 to 191 °C.
